Measured values published in article PMC4666608, “Metabolic Profiling of Chicken Embryos Exposed to Perfluorooctanoic Acid (PFOA) and Agonists to Peroxisome Proliferator-Activated Receptors” (PLoS ONE, 2015).
Marks after values point to notes of the source that are not given here.

Test system: chicken embryos
Assay: Metabolic profiling of allantoic fluid (GC-MS, LC-MS, OPLS-DA)
Type: in vivo, Gallus gallus domesticus
Conditions: LC; for Mean concentration relative to control, feature 155.0353@0.6447272: suggested C3H10NO4P; for Mean concentration relative to control, feature 345.0497@1.1234403: suggested C10H12N5O7P; for Mean concentration relative to control, feature 337.0259@4.4213357: suggested C13H11N3O4S2; for Mean concentration relative to control, feature 344.1427@2.1164653: suggested C13H20N4O7; for Mean concentration relative to control, feature 331.184@6.373359: suggested C13H25N5O5; for Mean concentration relative to control, feature 361.2026@5.6644735: suggested C16H31N3O4S
Experimental: Controls were injected with 20 μL vehicle only (DMSO).
Plasma was collected and stored at -70°C.
Metabolites in allantoic fluid and blood plasma were analyzed using gas chromatography-mass spectrometry (GC-MS) and liquid chromatography-mass spectrometry (LC-MS) as described in S1 Methods. Prior to GC-MS and LC-MS analysis, allantoic fluid (100 μL) and blood plasma (50 μL) were extracted. To each sample, 900 μL (allantoic fluid) or 450 μL (blood plasma) of extraction buffer (90/10 v/v methanol:water) including all internal standards were added. Standards for GC-MS were proline, succinic acid, glutamic acid, salicylic acid, alpha-ketoglutarate, putrescine, myristic acid, hexadecanoic acid, cholesterol, and sucrose. Standards for LC-MS were Val-Tyr-Val, Leu-enkephalin, sulfadimethoxine and reserpine. Samples were homogenized by shaking in a bead mill at a frequency of 30 Hz for 3 minutes and proteins were precipitated at +4°C on ice. The samples were centrifuged at +4°C, 14000 rpm, for 10 min. Then, 200 μL supernatant was transferred to a GC microvial and 200 μL was transferred to an LC microvial, and solvents were evaporated. Samples from the four replicate experiments were analyzed using in chronological order and within each replicate experiment the run order of the individual samples was randomized.
Multivariate statistical analyses of metabolite profiles were performed using the software package SIMCA-P version 13.0 (Umetrics, Umeå, Sweden). Data was centered and scaled to variance 1 (UV scaling) prior to modelling. To reduce unintended systematic variation caused by sample processing and instrument drift, GC-MS and LC-MS metabolite amounts (expressed as the area under the chromatographic peak) were normalized by Orthogonal Partial Least Squares analysis (O2PLS) prior to multivariate data analysis. O2PLS finds common (predictive) and unique (orthogonal) variation in two data matrices. If applied to find the common variation between the data matrix containing the measured metabolite concentrations and a matrix containing only the internal standards, the only common (predictive) variation expected is due to the unintended systematic variation. By deleting the contribution of the predictive latent variables, that variation can be removed from the data. Models obtained after this normalization contain in general less latent variables, and this simplification helps when deciding on the number of latent variables to be used. Following normalization, GC-MS and LC-MS data were analyzed together. Initially, a global Principal Component Analysis (PCA) was performed to get an overview of groups and trends and to identify outliers. Projections to latent structures by means of Orthogonal Partial Least Squares Discriminant Analysis (OPLS-DA) was used to model the relationship between the X-matrix (metabolite concentrations) and the Y matrix (class, i.e. exposure group or sex), and to find x-variables that were related to class belonging. OPLS-DA is a supervised prediction and regression method that rotates the projection plane to find the maximum covariance between the data and the class assignment. All groups were first analyzed together in a 5-class OPLS-DA and then each exposure group was analyzed against the control group in a 2-class OPLS-DA. Sex differences were analyzed both using the whole data set and in each group separately using 2-class OPLS-DA, with females and males as the two classes. Only variables with 80% or more nonzero values were included in the statistical models. […] The validity of each model was also checked using CV-ANOVA (ANOVA of the cross-validated residuals). A significance level of p < 0.05 was used. For each model, R ^2 X, R ^2 Y and Q ^2 values were calculated, where R ^2 X is a measure of the fraction of x variation modeled in the extracted latent variables, R ^2 Y is a measure of the fraction of y variation modeled and Q ^2 is an estimate of the predictive ability of the model and is calculated by cross-validation. […]

O=C(O)C(F)(F)C(F)(F)C(F)(F)C(F)(F)C(F)(F)C(F)(F)C(F)(F)F [PFOA, perfluorooctanoic acid]
1.2: Mean concentration relative to control, feature 279.1248@2.796395 (PFOA 250 μg/egg) | Mean concentration relative to control, feature 288.1166@2.9551322 (PFOA 250 μg/egg) | Mean concentration relative to control, feature 289.173@7.5030584 (PFOA 250 μg/egg) | Mean concentration relative to control, feature 371.1513@3.0009465 (PFOA 250 μg/egg) | Mean concentration relative to control, feature 580.1426@3.0726147 (PFOA 250 μg/egg) | Mean concentration relative to control, feature 582.1578@2.1747615 (PFOA 250 μg/egg) | Mean concentration relative to control, feature 594.1337@3.0724604 (PFOA 250 μg/egg)
0.8: Mean concentration relative to control, feature 361.2026@5.6644735 (PFOA 50 μg/egg)
0.4*: Mean concentration relative to control, feature 155.0353@0.6447272 (PFOA 50 μg/egg)
1.1: Mean concentration relative to control, feature 345.0497@1.1234403 (PFOA 50 μg/egg) | Mean concentration relative to control, feature 145.0538@3.072527 (PFOA 250 μg/egg) | Mean concentration relative to control, feature 147.0328@3.0722888 (PFOA 250 μg/egg) | Mean concentration relative to control, feature 160.0323@1.1950632 (PFOA 250 μg/egg) | Mean concentration relative to control, feature 173.0488@3.0734746 (PFOA 250 μg/egg) | Mean concentration relative to control, feature 201.012@3.046474 (PFOA 250 μg/egg) | Mean concentration relative to control, feature 236.0816@3.0720985 (PFOA 250 μg/egg) | Mean concentration relative to control, feature 250.0981@3.072492 (PFOA 250 μg/egg) | Mean concentration relative to control, feature 262.0978@2.7961144 (PFOA 250 μg/egg) | Mean concentration relative to control, feature 278.0928@3.0723689 (PFOA 250 μg/egg) | Mean concentration relative to control, feature 302.0508@3.0722616 (PFOA 250 μg/egg) | Mean concentration relative to control, feature 316.0389@3.0725708 (PFOA 250 μg/egg) | Mean concentration relative to control, feature 320.0626@3.0729218 (PFOA 250 μg/egg) | Mean concentration relative to control, feature 325.1114@2.1190624 (PFOA 250 μg/egg) | Mean concentration relative to control, feature 325.1115@2.3554378 (PFOA 250 μg/egg) | Mean concentration relative to control, feature 348.0553@3.0730357 (PFOA 250 μg/egg) | Mean concentration relative to control, feature 414.1482@2.118972 (PFOA 250 μg/egg) | Mean concentration relative to control, feature 466.0837@2.1187525 (PFOA 250 μg/egg) | Mean concentration relative to control, feature 588.1751@2.1182237 (PFOA 250 μg/egg) | Mean concentration relative to control, feature 623.183@2.1249466 (PFOA 250 μg/egg) | Mean concentration relative to control, feature 345.0497@1.1234403 (PFOA 250 μg/egg)
0.5*: Mean concentration relative to control, feature 176.0952@1.3890611 (PFOA 250 μg/egg)
0.5***: Mean concentration relative to control, feature 305.1682@5.353517 (PFOA 250 μg/egg)
1.0: Mean concentration relative to control, feature 466.0837@2.1187525 (PFOA 50 μg/egg) | Mean concentration relative to control, feature 488.0753@4.419585 (PFOA 50 μg/egg) | Mean concentration relative to control, feature 498.1003@2.1184251 (PFOA 50 μg/egg) | Mean concentration relative to control, feature 507.1682@2.1238236 (PFOA 50 μg/egg) | Mean concentration relative to control, feature 580.1426@3.0726147 (PFOA 50 μg/egg) | Mean concentration relative to control, feature 582.1578@2.1747615 (PFOA 50 μg/egg) | Mean concentration relative to control, feature 588.1751@2.1182237 (PFOA 50 μg/egg) | Mean concentration relative to control, feature 594.1337@3.0724604 (PFOA 50 μg/egg) | Mean concentration relative to control, feature 604.1486@2.1174603 (PFOA 50 μg/egg) | Mean concentration relative to control, feature 668.2625@6.4379454 (PFOA 50 μg/egg) | Mean concentration relative to control, feature 337.0259@4.4213357 (PFOA 50 μg/egg) | Mean concentration relative to control, feature 344.1427@2.1164653 (PFOA 50 μg/egg) | Mean concentration relative to control, feature 178.0428@1.7582192 (PFOA 250 μg/egg) | Mean concentration relative to control, feature 180.0048@4.421465 (PFOA 250 μg/egg) | Mean concentration relative to control, feature 197.0639@2.1181405 (PFOA 250 μg/egg) | Mean concentration relative to control, feature 202.0429@2.9548414 (PFOA 250 μg/egg) | Mean concentration relative to control, feature 205.0533@4.421879 (PFOA 250 μg/egg) | Mean concentration relative to control, feature 226.0107@4.421457 (PFOA 250 μg/egg) | Mean concentration relative to control, feature 241.0551@2.3510706 (PFOA 250 μg/egg) | Mean concentration relative to control, feature 243.1118@2.1537287 (PFOA 250 μg/egg) | Mean concentration relative to control, feature 244.9972@4.421603 (PFOA 250 μg/egg) | Mean concentration relative to control, feature 263.0855@2.2847009 (PFOA 250 μg/egg) | Mean concentration relative to control, feature 270.0441@1.1407775 (PFOA 250 μg/egg) | Mean concentration relative to control, feature 280.1425@2.730277 (PFOA 250 μg/egg) | Mean concentration relative to control, feature 289.1012@3.249983 (PFOA 250 μg/egg) | Mean concentration relative to control, feature 294.1242@2.3692534 (PFOA 250 μg/egg) | Mean concentration relative to control, feature 308.073@4.4211636 (PFOA 250 μg/egg) | Mean concentration relative to control, feature 310.1181@1.5090439 (PFOA 250 μg/egg) | Mean concentration relative to control, feature 344.1424@2.348947 (PFOA 250 μg/egg) | Mean concentration relative to control, feature 394.167@3.9552917 (PFOA 250 μg/egg) | Mean concentration relative to control, feature 488.0753@4.419585 (PFOA 250 μg/egg) | Mean concentration relative to control, feature 498.1003@2.1184251 (PFOA 250 μg/egg) | Mean concentration relative to control, feature 507.1682@2.1238236 (PFOA 250 μg/egg) | Mean concentration relative to control, feature 604.1486@2.1174603 (PFOA 250 μg/egg) | Mean concentration relative to control, feature 668.2625@6.4379454 (PFOA 250 μg/egg) | Mean concentration relative to control, feature 337.0259@4.4213357 (PFOA 250 μg/egg) | Mean concentration relative to control, feature 344.1427@2.1164653 (PFOA 250 μg/egg)
0.7**: Mean concentration relative to control, feature 305.1684@5.2955093 (PFOA 250 μg/egg) | Mean concentration relative to control, feature 331.184@6.373359 (PFOA 250 μg/egg)
0.3*: Mean concentration relative to control, feature 155.0353@0.6447272 (PFOA 250 μg/egg)
0.8*: Mean concentration relative to control, feature 333.2005@6.5291867 (PFOA 250 μg/egg)
0.9: Mean concentration relative to control, feature 623.183@2.1249466 (PFOA 50 μg/egg) | Mean concentration relative to control, feature 331.184@6.373359 (PFOA 50 μg/egg) | Mean concentration relative to control, feature 134.0239@1.1350567 (PFOA 250 μg/egg) | Mean concentration relative to control, feature 189.1159@1.9209185 (PFOA 250 μg/egg) | Mean concentration relative to control, feature 214.016@2.1190732 (PFOA 250 μg/egg) | Mean concentration relative to control, feature 245.1563@2.2907295 (PFOA 250 μg/egg) | Mean concentration relative to control, feature 333.1335@2.8639288 (PFOA 250 μg/egg) | Mean concentration relative to control, feature 335.1866@4.508565 (PFOA 250 μg/egg) | Mean concentration relative to control, feature 337.1651@1.8737898 (PFOA 250 μg/egg) | Mean concentration relative to control, feature 349.1651@2.4087605 (PFOA 250 μg/egg) | Mean concentration relative to control, feature 357.1997@6.9691257 (PFOA 250 μg/egg) | Mean concentration relative to control, feature 375.1819@3.672254 (PFOA 250 μg/egg) | Mean concentration relative to control, feature 361.2026@5.6644735 (PFOA 250 μg/egg)
